Earlier results on one compound are cited in US9445992B2, “Mucosal delivery compositions comprising a peptide complexed with a crown compound and/or a counter ion” (ARISGEN SA, priority 2009, dated 2016).

For the series the following is noted: in water.

Broadly, the pKa is the negative logarithm of the acid dissociation constant. With `CCCCCCCCCCCC(=O)OC[C@H](COP(=O)(O)OCC(O)CO)OC(=O)CCCCCCCCCCC` (stereo partly shown) [DLPG, dilauryloylphosphatidylglycerol], the pKa is below 2.
